# Results: the NIST ThermoML archive (doi:10.1021/acs.jced.9b00442)
# ± gives the expanded uncertainty stated by the source.
# Conditions: 306.15 K; 100 kPa; Liquid; Vibrating tube method
row,Compound,mass density [kg/m3]
1,CCCC[N+](C)(C)CC.O=S(=O)([N-]S(=O)(=O)C(F)(F)F)C(F)(F)F,1364.6 ± 1.1

# Same assay, conditions: 307.15 K; 100 kPa; Liquid; Vibrating tube method
row,Compound,mass density [kg/m3]
1,CC[N+](C)(C)CCOC.O=S(=O)([N-]S(=O)(=O)C(F)(F)F)C(F)(F)F,1422.5 ± 1.1
2,CC[N+](C)(C)CCCO.O=S(=O)([N-]S(=O)(=O)C(F)(F)F)C(F)(F)F,1455.5 ± 1.2
3,CCCC[N+](C)(C)CC.O=S(=O)([N-]S(=O)(=O)C(F)(F)F)C(F)(F)F,1363.7 ± 1.1

# Same assay, conditions: 308.15 K; 100 kPa; Liquid; Concentric cylinders viscometry
row,Compound,viscosity [mPa·s]
1,CC[N+](C)(C)CCOC.O=S(=O)([N-]S(=O)(=O)C(F)(F)F)C(F)(F)F,40.5 ± 1.6
2,CC[N+](C)(C)CCCO.O=S(=O)([N-]S(=O)(=O)C(F)(F)F)C(F)(F)F,96.7 ± 4
3,CCCC[N+](C)(C)CC.O=S(=O)([N-]S(=O)(=O)C(F)(F)F)C(F)(F)F,62.3 ± 2.5

# Same assay, conditions: 308.15 K; 100 kPa; Liquid; Frequency=0.0006 MHz; Alternating current cell with electrodes
row,Compound,electrical conductivity [S/m]
1,CC[N+](C)(C)CCOC.O=S(=O)([N-]S(=O)(=O)C(F)(F)F)C(F)(F)F,0.415 ± 0.008
2,CC[N+](C)(C)CCCO.O=S(=O)([N-]S(=O)(=O)C(F)(F)F)C(F)(F)F,0.204 ± 0.004
3,CCCC[N+](C)(C)CC.O=S(=O)([N-]S(=O)(=O)C(F)(F)F)C(F)(F)F,0.279 ± 0.006

# Same assay, conditions: 308.15 K; 100 kPa; Liquid; Vibrating tube method
row,Compound,mass density [kg/m3]
1,CC[N+](C)(C)CCOC.O=S(=O)([N-]S(=O)(=O)C(F)(F)F)C(F)(F)F,1421.6 ± 1.1
2,CC[N+](C)(C)CCCO.O=S(=O)([N-]S(=O)(=O)C(F)(F)F)C(F)(F)F,1454.7 ± 1.2
3,CCCC[N+](C)(C)CC.O=S(=O)([N-]S(=O)(=O)C(F)(F)F)C(F)(F)F,1362.8 ± 1.1

# Same assay, conditions: 309.15 K; 100 kPa; Liquid; Vibrating tube method
row,Compound,mass density [kg/m3]
1,CC[N+](C)(C)CCOC.O=S(=O)([N-]S(=O)(=O)C(F)(F)F)C(F)(F)F,1420.6 ± 1.1
2,CC[N+](C)(C)CCCO.O=S(=O)([N-]S(=O)(=O)C(F)(F)F)C(F)(F)F,1453.8 ± 1.2
3,CCCC[N+](C)(C)CC.O=S(=O)([N-]S(=O)(=O)C(F)(F)F)C(F)(F)F,1361.9 ± 1.1

# Same assay, conditions: 310.15 K; 100 kPa; Liquid; Vibrating tube method
row,Compound,mass density [kg/m3]
1,CC[N+](C)(C)CCOC.O=S(=O)([N-]S(=O)(=O)C(F)(F)F)C(F)(F)F,1419.7 ± 1.1
2,CC[N+](C)(C)CCCO.O=S(=O)([N-]S(=O)(=O)C(F)(F)F)C(F)(F)F,1452.9 ± 1.2
3,CCCC[N+](C)(C)CC.O=S(=O)([N-]S(=O)(=O)C(F)(F)F)C(F)(F)F,1361.1 ± 1.1

# Same assay, conditions: 311.15 K; 100 kPa; Liquid; Vibrating tube method
row,Compound,mass density [kg/m3]
1,CC[N+](C)(C)CCOC.O=S(=O)([N-]S(=O)(=O)C(F)(F)F)C(F)(F)F,1418.8 ± 1.1
2,CC[N+](C)(C)CCCO.O=S(=O)([N-]S(=O)(=O)C(F)(F)F)C(F)(F)F,1452 ± 1.2
3,CCCC[N+](C)(C)CC.O=S(=O)([N-]S(=O)(=O)C(F)(F)F)C(F)(F)F,1360.2 ± 1.1

# Same assay, conditions: 312.15 K; 100 kPa; Liquid; Vibrating tube method
row,Compound,mass density [kg/m3]
1,CC[N+](C)(C)CCOC.O=S(=O)([N-]S(=O)(=O)C(F)(F)F)C(F)(F)F,1417.8 ± 1.1
2,CC[N+](C)(C)CCCO.O=S(=O)([N-]S(=O)(=O)C(F)(F)F)C(F)(F)F,1451.2 ± 1.2
3,CCCC[N+](C)(C)CC.O=S(=O)([N-]S(=O)(=O)C(F)(F)F)C(F)(F)F,1359.3 ± 1.1

# Same assay, conditions: 313.15 K; 100 kPa; Liquid; Concentric cylinders viscometry
row,Compound,viscosity [mPa·s]
1,CC[N+](C)(C)CCOC.O=S(=O)([N-]S(=O)(=O)C(F)(F)F)C(F)(F)F,33.9 ± 1.4
2,CC[N+](C)(C)CCCO.O=S(=O)([N-]S(=O)(=O)C(F)(F)F)C(F)(F)F,76.8 ± 3.1
3,CCCC[N+](C)(C)CC.O=S(=O)([N-]S(=O)(=O)C(F)(F)F)C(F)(F)F,50.9 ± 2.1

# Same assay, conditions: 313.15 K; 100 kPa; Liquid; Frequency=0.0006 MHz; Alternating current cell with electrodes
row,Compound,electrical conductivity [S/m]
1,CC[N+](C)(C)CCOC.O=S(=O)([N-]S(=O)(=O)C(F)(F)F)C(F)(F)F,0.489 ± 0.01
2,CC[N+](C)(C)CCCO.O=S(=O)([N-]S(=O)(=O)C(F)(F)F)C(F)(F)F,0.253 ± 0.005
3,CCCC[N+](C)(C)CC.O=S(=O)([N-]S(=O)(=O)C(F)(F)F)C(F)(F)F,0.337 ± 0.007

# Same assay, conditions: 313.15 K; 100 kPa; Liquid; Vibrating tube method
row,Compound,mass density [kg/m3]
1,CC[N+](C)(C)CCOC.O=S(=O)([N-]S(=O)(=O)C(F)(F)F)C(F)(F)F,1416.9 ± 1.1
2,CC[N+](C)(C)CCCO.O=S(=O)([N-]S(=O)(=O)C(F)(F)F)C(F)(F)F,1450.3 ± 1.2
3,CCCC[N+](C)(C)CC.O=S(=O)([N-]S(=O)(=O)C(F)(F)F)C(F)(F)F,1358.4 ± 1.1

# Same assay, conditions: 314.15 K; 100 kPa; Liquid; Vibrating tube method
row,Compound,mass density [kg/m3]
1,CC[N+](C)(C)CCOC.O=S(=O)([N-]S(=O)(=O)C(F)(F)F)C(F)(F)F,1416 ± 1.1
2,CC[N+](C)(C)CCCO.O=S(=O)([N-]S(=O)(=O)C(F)(F)F)C(F)(F)F,1449.4 ± 1.2
3,CCCC[N+](C)(C)CC.O=S(=O)([N-]S(=O)(=O)C(F)(F)F)C(F)(F)F,1357.6 ± 1.1

# Same assay, conditions: 315.15 K; 100 kPa; Liquid; Vibrating tube method
row,Compound,mass density [kg/m3]
1,CC[N+](C)(C)CCOC.O=S(=O)([N-]S(=O)(=O)C(F)(F)F)C(F)(F)F,1415.1 ± 1.1
2,CC[N+](C)(C)CCCO.O=S(=O)([N-]S(=O)(=O)C(F)(F)F)C(F)(F)F,1448.6 ± 1.2
3,CCCC[N+](C)(C)CC.O=S(=O)([N-]S(=O)(=O)C(F)(F)F)C(F)(F)F,1356.7 ± 1.1

# Same assay, conditions: 316.15 K; 100 kPa; Liquid; Vibrating tube method
row,Compound,mass density [kg/m3]
1,CC[N+](C)(C)CCOC.O=S(=O)([N-]S(=O)(=O)C(F)(F)F)C(F)(F)F,1414.1 ± 1.1
2,CC[N+](C)(C)CCCO.O=S(=O)([N-]S(=O)(=O)C(F)(F)F)C(F)(F)F,1447.7 ± 1.2
3,CCCC[N+](C)(C)CC.O=S(=O)([N-]S(=O)(=O)C(F)(F)F)C(F)(F)F,1355.8 ± 1.1

# Same assay, conditions: 317.15 K; 100 kPa; Liquid; Vibrating tube method
row,Compound,mass density [kg/m3]
1,CC[N+](C)(C)CCOC.O=S(=O)([N-]S(=O)(=O)C(F)(F)F)C(F)(F)F,1413.2 ± 1.1
